Experimental data: patent US10752624B2, “Kinase inhibitors” (Origenis GmbH, priority 2012, dated 2020)

Biological target: LRRK2 (Homo sapiens, UniProt Q5S007)
Assay: LRRK2-LRRK2 G2019S-Assay (LanthaScreen Eu Kinase Binding Assay)
Conditions: 5 nM LRRK2, 10 nM tracer 236, 2 nM EU-Anti-GST antibody, 1 h at RT; read-out: LRRK2 Activities: IC50
Description: In the assay LanthaScreen™ Eu Kinase Binding Assay by Invitrogen Corporation (Carlsbad) the effect of invention of a compound on the phosphorylation is determined by measurement of fluorescence intensity emission ratio based on the binding and displacement of a proprietary, Alexa Fluor® 647-labeled, ATP-competitive kinase inhibitor scaffold (kinase tracer) to the kinase of interest. Binding of the tracer to the kinase is detected using a europium-labeled anti-tag antibody, which binds to the kinase of interest. Simultaneous binding of both the tracer and antibody to the kinase results in a high degree of FRET (fluorescence resonance energy transfer) from the europium (Eu) donor fluorophore to the Alexa Fluor® 647 acceptor fluorophore on the kinase tracer. Binding of an inhibitor to the kinase competes for binding with the tracer, resulting in a loss of FRET. The fluorescence intensity ratio is directly proportional to the amount of peptide phosphorylation.
To the wells of an 384 well small volume plate (Greiner, Frickenhausen) are added (i) the compound under test in 5% DMSO/distilled water (5 μl), (ii) 5 μl of the kinase antibody mixture resulting in a final concentration 5 nM LRRK2 or their mutants, 2 nM EU-Anti-GST antibody in 1× kinase buffer A. The reaction was started with addition of (iii) 5 μl resulting in a final concentration of 10 nM tracer 236. The assay plate was incubated at RT for 1 h and fluorescence intensity readings were collected using a TECAN M1000 at two wavelengths of λex 340/λem 615 nm and λex 340/λem 665 nm with a delay time of 100 μs and an integration time of 200 μs after 60 minutes. The emission ratio was calculated by division of the acceptor/tracer emission ([…]) by the antibody/donor emission ([…]). The inhibitor concentration was plotted versus the emission ratio to determine the IC50 using XLFit 5.0 (IDBS, Guildford) to fit to a sigmoidal dose response curve with a variable slope.

Sequence of LRRK2 (Q5S007 970-2527 limits assumed): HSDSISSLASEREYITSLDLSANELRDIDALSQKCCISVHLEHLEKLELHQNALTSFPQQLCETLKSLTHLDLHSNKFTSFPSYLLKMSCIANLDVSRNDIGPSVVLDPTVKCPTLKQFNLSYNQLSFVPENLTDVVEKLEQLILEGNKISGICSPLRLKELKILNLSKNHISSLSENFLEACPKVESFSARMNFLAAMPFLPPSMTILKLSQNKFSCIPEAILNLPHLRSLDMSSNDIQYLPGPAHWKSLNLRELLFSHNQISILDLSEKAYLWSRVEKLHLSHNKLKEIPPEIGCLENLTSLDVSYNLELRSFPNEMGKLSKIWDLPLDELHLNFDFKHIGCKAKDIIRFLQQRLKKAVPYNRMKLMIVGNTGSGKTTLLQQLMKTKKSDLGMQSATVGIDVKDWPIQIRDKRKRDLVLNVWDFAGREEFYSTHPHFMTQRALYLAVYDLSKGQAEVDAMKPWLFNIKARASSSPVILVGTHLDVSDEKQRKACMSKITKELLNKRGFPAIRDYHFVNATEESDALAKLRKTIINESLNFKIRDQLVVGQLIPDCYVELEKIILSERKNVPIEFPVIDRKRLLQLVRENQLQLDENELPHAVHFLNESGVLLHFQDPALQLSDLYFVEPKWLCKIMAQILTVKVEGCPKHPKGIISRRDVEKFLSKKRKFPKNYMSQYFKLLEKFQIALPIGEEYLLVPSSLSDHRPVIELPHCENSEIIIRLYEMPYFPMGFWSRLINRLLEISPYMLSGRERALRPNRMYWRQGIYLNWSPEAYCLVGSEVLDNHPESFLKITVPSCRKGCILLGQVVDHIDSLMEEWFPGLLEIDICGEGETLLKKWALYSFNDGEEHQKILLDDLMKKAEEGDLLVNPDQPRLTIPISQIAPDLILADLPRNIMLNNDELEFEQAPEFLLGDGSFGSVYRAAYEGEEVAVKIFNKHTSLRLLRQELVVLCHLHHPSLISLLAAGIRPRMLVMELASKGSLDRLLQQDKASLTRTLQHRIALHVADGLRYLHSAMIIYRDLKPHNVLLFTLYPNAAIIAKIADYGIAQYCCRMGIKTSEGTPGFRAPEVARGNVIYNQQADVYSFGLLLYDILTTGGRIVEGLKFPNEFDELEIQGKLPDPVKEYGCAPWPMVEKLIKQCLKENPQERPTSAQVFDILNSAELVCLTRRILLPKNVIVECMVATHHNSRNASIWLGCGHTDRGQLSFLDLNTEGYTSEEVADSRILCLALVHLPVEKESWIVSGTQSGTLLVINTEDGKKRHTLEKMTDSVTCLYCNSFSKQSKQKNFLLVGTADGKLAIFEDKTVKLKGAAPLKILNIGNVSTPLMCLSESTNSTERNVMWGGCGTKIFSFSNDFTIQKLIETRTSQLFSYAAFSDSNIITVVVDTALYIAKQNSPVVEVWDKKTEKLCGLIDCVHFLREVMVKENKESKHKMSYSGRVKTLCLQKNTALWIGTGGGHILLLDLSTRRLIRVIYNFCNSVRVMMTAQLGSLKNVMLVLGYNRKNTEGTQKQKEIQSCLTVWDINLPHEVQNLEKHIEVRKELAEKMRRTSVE

Compound	IC50 [nM]
COCCCn1cc(Nc2nc3c(OC)cccc3c3cn[nH]c23)cn1 [Example 306, 6-methoxy-N-(1-(3-methoxypropyl)-1H-pyrazol-4-yl)-3H-pyrazolo[3,4-c]quinolin-4-amine]	100 to 1000
COc1cc(C(=O)N2CCOCC2)ccc1Nc1nc2cc(S(C)(=O)=O)ccc2c2cn[nH]c12 [Example 194, (3-methoxy-4-((7-(methylsulfonyl)-3H-pyrazolo[3,4-c]quinolin-4-yl)amino)phenyl)(morpholino)methanone]	100 to 1000
CC(C)(C)N1CCN(c2ccc(Nc3nc4cccc(S(C)(=O)=O)c4c4cn[nH]c34)cc2)CC1 [Example 95, N-(4-(4-(tert-butyl)piperazin-1-yl)phenyl)-9-(methylsulfonyl)-3H-pyrazolo[3,4-c]quinolin-4-amine]	100 to 1000
COc1ccc2nc(Nc3cnn(C(C)C(=O)O)c3)c3n[nH]cc3c2c1 (stereo not shown) [Example 347, 2-(4-((8-methoxy-2H-pyrazolo[3,4-c]quinolin-4-yl)amino)-1H-pyrazol-1-yl)propanoic acid]	100 to 1000
COc1ccc2nc(Nc3cccc(C(C)(C)C#N)c3)c3n[nH]cc3c2c1 [Example 24, 2-(3-((8-methoxy-2H-pyrazolo[3,4-c]quinolin-4-yl)amino)phenyl)-2-methylpropanenitrile]	100 to 1000
COCCn1cc(Nc2nc3cccc(OC)c3c3cn[nH]c23)c(C(F)(F)F)n1 [Example 267, 9-methoxy-N-(1-(2-methoxyethyl)-3-(trifluoromethyl)-1H-pyrazol-4-yl)-3H-pyrazolo[3,4-c]quinolin-4-amine]	100 to 1000
Cn1nc(C2CC2)cc1Nc1nc2ccc(S(C)(=O)=O)cc2c2cn[nH]c12 [Example 239, N-(3-cyclopropyl-1-methyl-1H-pyrazol-5-yl)-8-(methylsulfonyl)-3H-pyrazolo[3,4-c]quinolin-4-amine]	100 to 1000
COc1ccc2nc(Nc3cnn(C)c3C)c3n[nH]cc3c2c1 [Example 104, N-(1,5-dimethyl-1H-pyrazol-4-yl)-8-methoxy-2H-pyrazolo[3,4-c]quinolin-4-amine]	100 to 1000
CS(=O)(=O)c1ccc2c(c1)nc(Nc1ccc(C(=O)N3CCOCC3)c(F)c1)c1[nH]ncc12 [Example 174, (2-fluoro-4-((7-(methylsulfonyl)-3H-pyrazolo[3,4-c]quinolin-4-yl)amino)phenyl)(morpholino)methanone]	100 to 1000
COc1ccc2nc(Nc3ccc4c(c3)S(=O)(=O)C=C4)c3n[nH]cc3c2c1 [Example 13, 6-((8-methoxy-2H-pyrazolo[3,4-c]quinolin-4-yl)amino)benzo[b]thiophene 1,1-dioxide]	100 to 1000
COc1ccc2nc(Nc3cnn(C)n3)c3n[nH]cc3c2c1 [Example 122, 8-methoxy-N-(2-methyl-2H-1,2,3-triazol-4-yl)-2H-pyrazolo[3,4-c]quinolin-4-amine]	100 to 1000
COc1cccc2nc(Nc3c(C)nn(C(C)C)c3C)c3[nH]ncc3c12 [Example 234, N-(1-isopropyl-3,5-dimethyl-1H-pyrazol-4-yl)-9-methoxy-3H-pyrazolo[3,4-c]quinolin-4-amine]	100 to 1000
COc1ccc2nc(Nc3ccc(C(=O)N4CCOCC4)c([N+](=O)[O-])c3)c3n[nH]cc3c2c1 [Example 35, (4-((8-methoxy-2H-pyrazolo[3,4-c]quinolin-4-yl)amino)-2-nitrophenyl)(morpholino)methanone]	100 to 1000
COc1ccc2nc(Nc3ccc(N(C)C)nc3)c3n[nH]cc3c2c1 [Example 87, N5-(8-methoxy-2H-pyrazolo[3,4-c]quinolin-4-yl)-N2,N2-dimethylpyridine-2,5-diamine]	100 to 1000

Other lines, results leading:

IC50 [nM]	Compound
10 to 100	COCCn1cc(Nc2nc3ccc(S(C)(=O)=O)cc3c3cn[nH]c23)c(C(F)(F)F)n1 [Example 271, N-(1-(2-methoxyethyl)-3-(trifluoromethyl)-1H-pyrazol-4-yl)-8-(methylsulfonyl)-3H-pyrazolo[3,4-c]quinolin-4-amine]
10 to 100	COCCCn1ncc(Nc2nc3ccc(S(C)(=O)=O)cc3c3cn[nH]c23)c1Cl [Example 237, N-(5-chloro-1-(3-methoxypropyl)-1H-pyrazol-4-yl)-8-(methylsulfonyl)-3H-pyrazolo[3,4-c]quinolin-4-amine]
10 to 100	COc1cccc2c1nc(Nc1cnn(C(C)C)c1)c1[nH]ncc12 [Example 305, N-(1-isopropyl-1H-pyrazol-4-yl)-6-methoxy-3H-pyrazolo[3,4-c]quinolin-4-amine]
100 to 1000	CC(C)n1ncc(Nc2nc3ccc(S(C)(=O)=O)cc3c3cn[nH]c23)c1C(N)=O [Example 251, 1-isopropyl-4-((8-(methylsulfonyl)-3H-pyrazolo[3,4-c]quinolin-4-yl)amino)-1H-pyrazole-5-carboxamide]
100 to 1000	CS(=O)(=O)c1cccc2nc(Nc3ccc(NCCO)cc3)c3[nH]ncc3c12 [Example 106, 2-((4-((9-(methylsulfonyl)-3H-pyrazolo[3,4-c]quinolin-4-yl)amino)phenyl)amino)ethan-1-ol]
10 to 100	CCN1C(=O)COc2ccc(Nc3nc4ccc(S(C)(=O)=O)cc4c4c[nH]nc34)cc21 [Example 342, 4-ethyl-6-((8-(methylsulfonyl)-2H-pyrazolo[3,4-c]quinolin-4-yl)amino)-2H-benzo[b][1,4]oxazin-3(4H)-one]
10 to 100	COCCn1ncc(Nc2nc3cccc(OC)c3c3cn[nH]c23)c1F [Example 276, N-(5-fluoro-1-(2-methoxyethyl)-1H-pyrazol-4-yl)-9-methoxy-3H-pyrazolo[3,4-c]quinolin-4-amine]
10 to 100	COc1ccc(Nc2nc3ccc(S(C)(=O)=O)cc3c3cn[nH]c23)cc1OC [Example 63, N-(3,4-dimethoxyphenyl)-8-(methylsulfonyl)-3H-pyrazolo[3,4-c]quinolin-4-amine]
100 to 1000	COc1cc(Nc2nc3cccc(F)c3c3cn[nH]c23)ccc1N1CCOCC1 [Example 31, 9-fluoro-N-(3-methoxy-4-morpholinophenyl)-3H-pyrazolo[3,4-c]quinolin-4-amine]
10 to 100	CSc1ccc2nc(Nc3ccc(N4CCOCC4)cc3)c3[nH]ncc3c2c1 [Example 43, 8-(methylthio)-N-(4-morpholinophenyl)-3H-pyrazolo[3,4-c]quinolin-4-amine]
< 10	COc1cccc2nc(Nc3cnn(C4CCOCC4)c3)c3[nH]ncc3c12 [Example 142, 9-methoxy-N-(1-(tetrahydro-2H-pyran-4-yl)-1H-pyrazol-4-yl)-3H-pyrazolo[3,4-c]quinolin-4-amine]
10 to 100	COc1cccc2nc(Nc3ccc(C(=O)N4CCOCC4)cc3)c3[nH]ncc3c12 [Example 14, (4-((9-methoxy-3H-pyrazolo[3,4-c]quinolin-4-yl)amino)phenyl)(morpholino)methanone]
10 to 100	COc1cccc2nc(Nc3ccc(N4CCN(S(C)(=O)=O)CC4)cc3)c3[nH]ncc3c12 [Example 59, 9-methoxy-N-(4-(4-(methylsulfonyl)piperazin-1-yl)phenyl)-3H-pyrazolo[3,4-c]quinolin-4-amine]
< 10	Cc1c(Nc2nc3ccc(S(C)(=O)=O)cc3c3cn[nH]c23)cnn1C(C)C [Example 214, N-(1-isopropyl-5-methyl-1H-pyrazol-4-yl)-8-(methylsulfonyl)-3H-pyrazolo[3,4-c]quinolin-4-amine]
< 10	CC(=O)N1CCC(n2cc(Nc3nc4ccc(S(C)(=O)=O)cc4c4cn[nH]c34)cn2)CC1 [Example 155, 1-(4-(4-((8-(methylsulfonyl)-3H-pyrazolo[3,4-c]quinolin-4-yl)amino)-1H-pyrazol-1-yl)piperidin-1-yl)ethan-1-one]
10 to 100	COc1cccc2nc(Nc3ccc(N4CCOCC4)nc3)c3[nH]ncc3c12 [Example 17, 9-methoxy-N-(6-morpholinopyridin-3-yl)-3H-pyrazolo[3,4-c]quinolin-4-amine]
10 to 100	COc1cccc2nc(Nc3ccc4c(c3)S(=O)(=O)C=C4)c3[nH]ncc3c12 [Example 20, 6-((9-methoxy-3H-pyrazolo[3,4-c]quinolin-4-yl)amino)benzo[b]thiophene 1,1-dioxide]
10 to 100	COc1ccc2nc(Nc3ccc(C(=O)N4CCOCC4)c(F)c3)c3n[nH]cc3c2c1 [Example 34, (2-fluoro-4-((8-methoxy-2H-pyrazolo[3,4-c]quinolin-4-yl)amino)phenyl)(morpholino)methanone]
10 to 100	COc1ccc2nc(Nc3ccc(N4CCC(O)CC4)cc3)c3[nH]ncc3c2c1 [Example 296, 1-(4-((8-methoxy-3H-pyrazolo[3,4-c]quinolin-4-yl)amino)phenyl)piperidin-4-ol]
10 to 100	COc1nn(C2CCN(C(C)(C)C)CC2)cc1Nc1nc2cccc(OC)c2c2cn[nH]c12 [Example 225, N-(1-(1-(tert-butyl)piperidin-4-yl)-3-methoxy-1H-pyrazol-4-yl)-9-methoxy-3H-pyrazolo[3,4-c]quinolin-4-amine]
